Assay results: patent US20200215009A1, “Optimized Solution for the Treatment of Alzheimer's, Stroke, Cardiovascular and other Amyloid Related Diseases” (priority 2017, published 2020)

Key:
L68Q cystatin C = target: T1, L68Q cystatin C (Homo sapiens, UniProt P01034, L94Q); assay: Preliminary trial of N-acetylcysteine in HCCAA patients expressing L68Q cystatin C, monitored by biopsy; assay type: in vivo
T1 construct: confirmed by genetic screen to express L68Q cystatin C; from tissue; host or cells: HCCAA patients; plaques and aggregated protein observed on biopsy
T1 sequence (P01034 27-146 L94Q): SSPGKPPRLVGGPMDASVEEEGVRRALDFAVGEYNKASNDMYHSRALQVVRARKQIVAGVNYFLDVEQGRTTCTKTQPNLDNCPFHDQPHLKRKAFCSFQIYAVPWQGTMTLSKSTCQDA
Description: Three persons who had been identified through characteristic HCCAA symptoms confirmed by genetic screen to express L68Q cystatin C agreed to participate in a preliminary trial with a prototype drug to support antioxidant and other effects of GSH. N-acetylcysteine was used as a GSH-support/anti-cystatin-C-polymerization archetypical drug for conceptual proof and support of the hypotheses supporting this invention. […] One patient fully complied with the prescribed protocol. Two patients were only partially compliant. The fully compliant patient presented with a 50% reduction in plaques observed on biopsy.
Treatments are continuing, augmented by confirmatory/advisory biopsies. Biopsy intervals may be approximately weekly, but longer intervals are envisioned as sufficient to monitor effects and dosages and to encourage compliance in testing and treatment maintenance. For example, biopsy intervals may be weekly, biweekly, monthly, bimonthly, quarterly, semi-annual, annual, etc. Biopsy appointments may be used both for treatment/disease monitoring, but also to maintain patient attention and interaction. Medical advisory panels and insurance issues may also be considered in determining the frequency and type(s) of biopsies.

cellular glutathione = conditions: dose of about 22-65 mg/kg; cited from earlier work

SMILES	disease arrest (L68Q cystatin C; all three HCCAA patients (one fully compliant, two partially compliant))	reduction in plaques observed on biopsy (L68Q cystatin C; fully compliant patient) [%]	reduction of aggregated protein previously observed (L68Q cystatin C; one of the two partially compliant patients)	change in cellular glutathione shortly after administration (cellular glutathione)	duration of effect, waning in plasma post administration (cellular glutathione) [h]
CC(=O)N[C@@H](CS)C(=O)O [N-acetylcysteine]	disease arrest	50	significant reduction		
O=C1N[C@H](C(=O)O)CS1 [OTC, L-2-oxothiazolidine-4-carboxolate]				double	≤ 8
